Experimental data published in PMC9118628, “Synthesis, molecular docking, and cytotoxicity of quinazolinone and dihydroquinazolinone derivatives as cytotoxic agents” (BMC Chemistry, 2022).
Read-outs that look alike come from different tables or passages of the source.

Experiments:
[1] = system: MCF-7 breast cancer cell line; assay: MTT cytotoxicity assay, MCF-7; type: cell-based; conditions: Homo sapiens
Description: (§1) The selected compounds 5a–e and 10a–f were evaluated as possible cytotoxic agents against human colon cancer HCT-116 cell line and MCF-7 breast cancer cell line by MTT assay using doxorubicin as the standard drug. […] The IC50 value was calculated from the inhibition rates at the mentioned durations. […] This is because the IC50 values in 72 h with p-value < 0.0001 are less than those in 48 h.
(§2) The human cancer cells MCF-7and HCT-116 as well as Hek-293 as normal cells were purchased from Pastor Institute of Iran. The cells were maintained in RPMI 1640 medium supplemented with 10% heat-inactivated fetal bovine serum (Company: DNAbiotec, Cat number: DB9723), and streptomycin ([…]) and penicillin (100 U/ml) at 37 °C in a humidified atmosphere with 5% CO2 in the air.
(§3) The cytotoxic activities of compounds 5a–e and 10a–f were evaluated against cancerous cell lines. […] The absorbance was read at 570 nm against a test wavelength of 690 nm […]. The inhibition percentage of compounds was calculated as: ODwells treated with DMSO1%–ODwells treated with compounds/ODwells treated with DMSO1%*100 (OD = absorbance). Then, IC50 values were calculated by nonlinear regression analysis.

[2] = system: human colon cancer HCT-116 cell line; assay: MTT cytotoxicity assay, HCT-116; type: cell-based
Description: as §1, §2, §3

[3] = system: Hek-293 cell lines; assay: MTT toxicity assessment on normal cells; type: cell-based; conditions: for IC50: Homo sapiens, HEK293, Hek-293 normal cells, 72 h, read-out: IC50 (µM) Hek-293 after 72 h; for toxicity against Hek-293 cell lines (in words): Hek-293 normal cells
Description: as §2, §3

[4] = system: PARP10; conditions: cited from earlier work
[5] = MCF7, MCF-7, 48 h, read-out: IC50 (µM) MCF-7 48 h
[6] = MCF7, MCF-7, 72 h, read-out: IC50 (µM) MCF-7 72 h
[7] = HCT-116, 48 h, read-out: IC50 (µM) HCT-116 48 h
[8] = HCT-116, 72 h, read-out: IC50 (µM) HCT-116 72 h

SMILES | IC50 [1, 5] | IC50 [1, 6] | IC50 [2, 7] | IC50 [2, 8] | melting point | IC50 [3] | IC50 [4] | toxicity against Hek-293 cell lines (in words) [3]
Cc1ccccc1Cn1cc(COc2ccc(C3Nc4ccccc4C(=O)N3Cc3ccc(F)cc3)cc2)nn1 (stereo not drawn) [Compound 10e, 3-(4-fluorobenzyl)-2-(4-((1-(2-methylbenzyl)-1H-1,2,3-triazol-4-yl)methoxy)phenyl)-2,3-dihydroquinazolin-4(1H)-one] | 79.1 µM | 48.8 µM | 48.2 µM | 33.3 µM | 63 to 65 °C | – | – | –
COc1cccc2c1C(=O)c1c(O)c3c(c(O)c1C2=O)C[C@@](O)(C(=O)CO)C[C@@H]3O[C@H]1C[C@H](N)[C@H](O)[C@H](C)O1 [DOX, doxorubicin, reference compound] | 1.33 µM | 1.08 µM | 1.66 µM | 1.2 µM | – | 0.75 ± 0.09 µM | – | –
CC#Cc1ccc2c(=O)[nH]c(CSc3ncccn3)nc2c1 [Compound G] | – | – | – | – | – | – | 9.3 µM | –
COc1ccc(-n2c(Nc3ccccc3)nc3ccccc3c2=O)cc1 [Compound 5d, 3-(4-methoxyphenyl)-2-(phenylamino)quinazolin-4(3H)-one] | 28.8 µM | 25 µM | 39.2 µM | 17.8 µM | 256 to 259 °C | 68.1 ± 12.3 µM | – | low toxicity
Cc1ccccc1Nc1nc2ccccc2c(=O)n1-c1ccccc1 [Compound 5a, 2-[(2-Methylphenyl)amino]-3-phenylquinazolin-4(3H)-one] | 71.2 µM | 14.7 µM | 7.15 µM | 4.87 µM | 254 to 258 °C | 8.71 ± 1.23 µM | – | high toxicity
CC(C)n1c(Nc2ccccc2)nc2ccccc2c1=O [Compound 5e, 3-isopropyl-2-(phenylamino)quinazolin-4(3H)-one] | 79 µM | 42.7 µM | 88.7 µM | 63.3 µM | 143 to 146 °C | – | – | –
O=C1c2ccccc2NC(c2ccc(OCc3cn(Cc4ccc(F)cc4)nn3)cc2)N1Cc1ccc(F)cc1 (stereo not drawn) [Compound 10f, 3-(4-fluorobenzyl)-2-(4-((1-(4-fluorobenzyl)-1H-1,2,3-triazol-4-yl)methoxy)phenyl)-2,3-dihydroquinazolin-4(1H)-one] | 41.5 µM | 16.3 µM | 40.4 µM | 10.1 µM | 69 to 72 °C | 56.1 ± 10.4 µM | – | low toxicity
O=C1c2ccccc2NC(c2ccc(OCc3cn(Cc4ccc(Cl)cc4)nn3)cc2)N1Cc1ccccc1 (stereo not drawn) [Compound 10c, 3-benzyl-2-(4-((1-(4-chlorobenzyl)-1H-1,2,3-triazol-4-yl)methoxy)phenyl)-2,3-dihydroquinazolin-4(1H)-one] | 52 µM | 32.3 µM | 120 µM | 61 µM | 84 to 87 °C | – | – | –
CC#Cc1ccc2c(=O)[nH]c(CSc3ccc(C(=O)O)cc3)nc2c1 [Compound F] | – | – | – | – | – | – | 0.2 µM | –
O=C1c2ccccc2NC(c2ccc(OCc3cn(Cc4ccc(Br)cc4)nn3)cc2)N1Cc1ccccc1 (stereo not drawn) [Compound 10d, 3-benzyl-2-(4-((1-(4-bromobenzyl)-1H-1,2,3-triazol-4-yl)methoxy)phenyl)-2,3-dihydroquinazolin-4(1H)-one] | 44.7 µM | 14.8 µM | 251 µM | 206 µM | 93 to 95 °C | – | – | –
O=C1c2ccccc2NC(c2ccc(OCc3cn(Cc4ccccc4)nn3)cc2)N1Cc1ccccc1 (stereo not drawn) [Compound 10a, 3-benzyl-2-(4-((1-benzyl-1H-1,2,3-triazol-4-yl)methoxy)phenyl)-2,3-dihydroquinazolin-4(1H)-one] | 62.3 µM | 18.9 µM | 88.8 µM | 29 µM | 65 to 68 °C | – | – | –
Cc1c(-c2ccnc(C(F)(F)F)c2)ccc2c1CCNC2=O [H] | – | – | – | – | – | – | 2.7 µM | –
O=C1c2ccccc2NC(c2ccc(OCc3cn(Cc4ccc(F)cc4)nn3)cc2)N1Cc1ccccc1 (stereo not drawn) [Compound 10b, 3-benzyl-2-(4-((1-(4-fluorobenzyl)-1H-1,2,3-triazol-4-yl)methoxy)phenyl)-2,3 dihydroquinazolin-4(1H)-one] | 139 µM | 98.5 µM | 184 µM | 64 µM | 83 to 86 °C | – | – | –
O=c1c2ccccc2nc(Nc2ccccc2)n1CCl [Compound 5b, 3-(chloromethyl)-2-(phenylamino)quinazolin-4(3H)-one] | 101 µM | 76.2 µM | 59.3 µM | 37.8 µM | 194 to 197 °C | – | – | –
O=c1c2ccccc2nc(Nc2ccccc2)n1C1CC1 [Compound 5c, 3-cyclopropyl-2-(phenylamino)quinazolin-4(3H)-one] | 74.9 µM | 50.4 µM | 59.2 µM | 29.2 µM | 141 to 144 °C | – | – | –
